Measurements published in patent US20090143279A1 (priority 2007, published 2009).
Where two headings read alike, the source gives them in different places.

How the values were obtained:
[1] = test system: mitochondrial membrane potential; assay type: cell-based, mouse; details: for ΔΨm (composite Z-score): normalized score vs mock-treated (DMSO) wells
mtOXPHOS transcripts = assay type: cell-based, mouse; details: for mitoOX (composite Z-score): normalized score vs mock-treated (DMSO) wells
nuOXPHOS transcripts = assay type: cell-based, mouse; details: for nucOX (composite Z-score): normalized score vs mock-treated (DMSO) wells
OXPHOS gene expression = assay type: cell-based, mouse; details: for GE-HTS (composite Z-score): normalized score vs mock-treated (DMSO) wells
C2C12 myotubes = details: for Viability (composite Z-score): normalized score vs mock-treated (DMSO) wells
[2] = test system: cellular dehydrogenase activity; details: for MTT (composite Z-score): normalized score vs mock-treated (DMSO) wells
cytochrome c = assay type: cell-based, mouse; details: for cyt c (composite Z-score): normalized score vs mock-treated (DMSO) wells
reactive oxygen species = assay type: cell-based, mouse; details: for ROS (composite Z-score): normalized score vs mock-treated (DMSO) wells
[3] = Table 4, C2C12 myotubes, 48 h, composite Z-score
[4] = composite Z-score vs DMSO, Conc 20 μM
[5] = Table 7, C2C12 myotubes, 48 h, composite Z-score
[6] = composite Z-score vs DMSO wells, Conc 20 μM
[7] = normalized composite Z-score vs mock-treated (DMSO) wells, Conc 20 μM
[8] = 20 μM, composite Z-score vs DMSO
[9] = composite Z-score vs mock-treated (DMSO) wells, Conc 20 μM

SMILES: CCC(C)C(OC(C)=O)C(=O)O[C@H]1[C@H](O)[C@@H]2[C@@]3(C)C=CC(=O)C(C)(C)[C@@H]3C[C@@H](OC(=O)C(O)C(C)C)[C@@]2(C)[C@@]23O[C@@H]2C[C@@H](c2ccoc2)[C@]13C (stereo partly drawn) [heudelottin C, reference compound]
- ΔΨm (composite Z-score) ([1]; Conc 20 μM): 0.373
- ΔΨm ([1]; Table 4, C2C12 myotubes, 48 h, JC-1, composite Z-score): 0.373
- mitoOX (composite Z-score) (mtOXPHOS transcripts; Conc 20 μM): −1.006
- nucOX (composite Z-score) (nuOXPHOS transcripts; Conc 20 μM): −0.245
- GE-HTS (composite Z-score) (OXPHOS gene expression; Conc 20 μM): −0.524
- Viability (composite Z-score) (C2C12 myotubes; Conc 20 μM): −0.829
- Viability (C2C12 myotubes; [3]): −0.829
- MTT (composite Z-score) ([2]; Conc 20 μM): −0.393
- MTT [2, 3]: −0.393
- cyt c (composite Z-score) (cytochrome c; Conc 20 μM): 0.156
- ROS (composite Z-score) (reactive oxygen species; Conc 20 μM): 0.576
- ROS (reactive oxygen species; [3]): 0.576

SMILES: COc1ccc(C[C@H](N)C(=O)N[C@H]2[C@@H](O)[C@H](n3cnc4c(N(C)C)ncnc43)O[C@@H]2CO)cc1 [Puromycin, reference compound]
- ΔΨm [1, 4]: −3.989
- mito-OXPHOS Z (mtOXPHOS transcripts; [5]): 1.24
- mitoOX (mtOXPHOS transcripts; [4]): −1.331
- nucOXPHOS Z (nuOXPHOS transcripts; [5]): −2.80
- nucOX (nuOXPHOS transcripts; [4]): −4.017
- GE-HTS (OXPHOS gene expression; [4]): −3.348
- Viability (C2C12 myotubes; [4]): −5.718
- MTT [2, 4]: −5.624
- cyt c (cytochrome c; [4]): −5.573
- ROS (reactive oxygen species; [4]): −2.665

SMILES: C=C(C)[C@@H]1[C@H]2OC(=O)[C@@H]1[C@]1(O)C[C@H]3O[C@]34C(=O)O[C@H]2[C@]14C [picrotoxinin]
- ΔΨm [1, 6]: −1.064
- mitoOX (mtOXPHOS transcripts; [6]): −0.551
- nucOX (nuOXPHOS transcripts; [6]): −0.408
- GE-HTS (OXPHOS gene expression; [6]): −0.512
- Viability (C2C12 myotubes; [6]): −1.116
- MTT [2, 6]: −1.611
- cyt c (cytochrome c; [6]): 0.172
- ROS (reactive oxygen species; [6]): 1.094

SMILES: C=C1CC[C@H]2O[C@]2(C)CC[C@@H]2[C@@H]1CC2(C)C [carylophyllene oxide]
- ΔΨm [1, 7]: −0.246
- mitoOX (mtOXPHOS transcripts; [7]): −0.324
- nucOX (nuOXPHOS transcripts; [7]): 0.060
- GE-HTS (OXPHOS gene expression; [7]): −0.087
- Viability (C2C12 myotubes; [7]): −0.547
- MTT [2, 7]: −0.713
- cyt c (cytochrome c; [7]): 0.321
- ROS (reactive oxygen species; [7]): 0.636

SMILES: CC[C@@]1(O)C(=O)OCc2c1cc1n(c2=O)Cc2cc3cc(O)ccc3nc2-1 [10-hydroxycamtothecin]
- ΔΨm (composite Z-score) ([1]; Conc 20 μM): 0.725
- mitoOX (composite Z-score) (mtOXPHOS transcripts; Conc 20 μM): −0.782
- nucOX (composite Z-score) (nuOXPHOS transcripts; Conc 20 μM): −1.180
- GE-HTS (composite Z-score) (OXPHOS gene expression; Conc 20 μM): −1.137
- Viability (composite Z-score) (C2C12 myotubes; Conc 20 μM): −1.466
- MTT (composite Z-score) ([2]; Conc 20 μM): −2.588
- cyt c (composite Z-score) (cytochrome c; Conc 20 μM): −2.397
- ROS (composite Z-score) (reactive oxygen species; Conc 20 μM): −1.681

SMILES: CC1(C)S[C@@H]2[C@H](NC(=O)C(C(=O)O)c3ccccc3)C(=O)N2[C@H]1C(=O)O (stereo partly drawn) [carbenicillin]
- ΔΨm [1, 8]: 0.298
- mitoOX (mtOXPHOS transcripts; [8]): −0.823
- nucOX (nuOXPHOS transcripts; [8]): −0.835
- GE-HTS (OXPHOS gene expression; [8]): −0.869
- Viability (C2C12 myotubes; [8]): −0.524
- MTT [2, 8]: −0.565
- cyt c (cytochrome c; [8]): −0.074
- ROS (reactive oxygen species; [8]): 2.042

SMILES: C/C=C(\C)C(=O)O[C@H]1C[C@@H](OC(C)=O)[C@@]2(C(=O)OC)CO[C@H]3[C@@H](O)[C@@](C)([C@]45O[C@@]4(C)[C@H]4C[C@@H]5O[C@@H]5OC=C[C@@]54O)[C@H]4[C@]1(CO[C@]4(O)C(=O)OC)[C@@H]32 [azadirachtin]
- ΔΨm [1, 4]: −0.670
- mitoOX (mtOXPHOS transcripts; [4]): 0.042
- nucOX (nuOXPHOS transcripts; [4]): 0.152
- GE-HTS (OXPHOS gene expression; [4]): 0.119
- Viability (C2C12 myotubes; [4]): −0.479
- MTT [2, 4]: −1.018
- cyt c (cytochrome c; [4]): −0.421
- ROS (reactive oxygen species; [4]): 0.494

SMILES: CC(=O)C1=C(O)[C@@H]2[C@H]3c4c[nH]c5cccc(c45)C[C@H]3C(C)(C)N2C1=O [cyclopiazonic acid]
- ΔΨm [1, 4]: 0.863
- mitoOX (mtOXPHOS transcripts; [4]): 0.172
- nucOX (nuOXPHOS transcripts; [4]): 0.163
- GE-HTS (OXPHOS gene expression; [4]): 0.186
- Viability (C2C12 myotubes; [4]): −1.392
- MTT [2, 4]: −1.107
- cyt c (cytochrome c; [4]): 0.033
- ROS (reactive oxygen species; [4]): −0.293

SMILES: O=c1c(-c2cc(O)c(O)c(O)c2)coc2cc(O)c(O)c(O)c12 [irigenol]
- ΔΨm [1, 4]: −0.374
- mitoOX (mtOXPHOS transcripts; [4]): −1.938
- nucOX (nuOXPHOS transcripts; [4]): −0.838
- GE-HTS (OXPHOS gene expression; [4]): −1.274
- Viability (C2C12 myotubes; [4]): 0.249
- MTT [2, 4]: −0.810
- cyt c (cytochrome c; [4]): 0.410
- ROS (reactive oxygen species; [4]): −1.001

SMILES: CC[C@@]1(O)C[C@H](O)c2c(cc3c(c2O)C(=O)c2c(O)ccc(O)c2C3=O)[C@H]1C(=O)OC [rutilantinone]
- ΔΨm [1, 4]: −3.758
- mitoOX (mtOXPHOS transcripts; [4]): −3.039
- nucOX (nuOXPHOS transcripts; [4]): −1.152
- GE-HTS (OXPHOS gene expression; [4]): −1.917
- Viability (C2C12 myotubes; [4]): 0.192
- MTT [2, 4]: −2.979
- cyt c (cytochrome c; [4]): 0.372
- ROS (reactive oxygen species; [4]): 2.445

SMILES: N[C@@H](Cc1ccc(N(CCCl)CCCl)cc1)C(=O)O [melphalan]
- ΔΨm [1, 6]: 0.151
- mitoOX (mtOXPHOS transcripts; [6]): 1.453
- nucOX (nuOXPHOS transcripts; [6]): 1.282
- GE-HTS (OXPHOS gene expression; [6]): 1.449
- Viability (C2C12 myotubes; [6]): −0.360
- MTT [2, 6]: −1.387
- cyt c (cytochrome c; [6]): −0.954
- ROS (reactive oxygen species; [6]): −0.265

SMILES: NC[C@@H]1O[C@H](O[C@H]2[C@@H](O)[C@H](O[C@@H]3[C@@H](O)[C@H](N)C[C@H](N)[C@H]3O[C@H]3O[C@H](CN)[C@@H](O)[C@H](O)[C@H]3N)O[C@@H]2CO)[C@H](N)[C@@H](O)[C@@H]1O [neomycin]
- ΔΨm [1, 4]: −0.599
- mitoOX (mtOXPHOS transcripts; [4]): 1.160
- nucOX (nuOXPHOS transcripts; [4]): 0.598
- GE-HTS (OXPHOS gene expression; [4]): 0.817
- Viability (C2C12 myotubes; [4]): −1.255
- MTT [2, 4]: −1.478
- cyt c (cytochrome c; [4]): 0.734
- ROS (reactive oxygen species; [4]): 1.203

SMILES: CC(=O)OCC[N+](C)(C)C [acetylcholine]
- ΔΨm [1, 8]: −0.520
- mitoOX (mtOXPHOS transcripts; [8]): 0.014
- nucOX (nuOXPHOS transcripts; [8]): 0.533
- GE-HTS (OXPHOS gene expression; [8]): 0.358
- Viability (C2C12 myotubes; [8]): −0.299
- MTT [2, 8]: −0.712
- cyt c (cytochrome c; [8]): −0.038
- ROS (reactive oxygen species; [8]): 0.622

SMILES: C[C@H](N)CO [I-alaninol]
- ΔΨm [1, 4]: −0.428
- mitoOX (mtOXPHOS transcripts; [4]): −0.738
- nucOX (nuOXPHOS transcripts; [4]): −0.555
- GE-HTS (OXPHOS gene expression; [4]): −0.652
- Viability (C2C12 myotubes; [4]): −0.353
- MTT [2, 4]: −0.342
- cyt c (cytochrome c; [4]): 0.301
- ROS (reactive oxygen species; [4]): 0.242

SMILES: C=C1C2CC[C@@]3(C)[C@H](c4ccoc4)OC(=O)C[C@]13O[C@H]1CC(=O)C(C)(C)[C@H](C(OC(C)=O)C(=O)OC)[C@@]21C (stereo partly drawn) [6-acetoxyangolensic acid methyl ester]
- ΔΨm (composite Z-score) ([1]; Conc 20 μM): −0.055
- mitoOX (composite Z-score) (mtOXPHOS transcripts; Conc 20 μM): 1.272
- nucOX (composite Z-score) (nuOXPHOS transcripts; Conc 20 μM): 1.291
- GE-HTS (composite Z-score) (OXPHOS gene expression; Conc 20 μM): 1.379
- Viability (composite Z-score) (C2C12 myotubes; Conc 20 μM): 0.671
- MTT (composite Z-score) ([2]; Conc 20 μM): −0.663
- cyt c (composite Z-score) (cytochrome c; Conc 20 μM): −0.105
- ROS (composite Z-score) (reactive oxygen species; Conc 20 μM): 1.137

SMILES: CC1=C(/C=C/C(C)=C/C=C/C(C)=C/C=C/C=C(C)/C=C/C=C(C)/C=C/[C@@]23O[C@]2(C)C[C@@H](O)CC3(C)C)C(C)(C)C[C@H](O)C1 [antheraxanthin]
- ΔΨm [1, 7]: −0.305
- mitoOX (mtOXPHOS transcripts; [7]): −0.011
- nucOX (nuOXPHOS transcripts; [7]): 0.026
- GE-HTS (OXPHOS gene expression; [7]): 0.013
- Viability (C2C12 myotubes; [7]): −0.496
- MTT [2, 7]: −0.804
- cyt c (cytochrome c; [7]): −0.206
- ROS (reactive oxygen species; [7]): 0.244

SMILES: CCOC(=O)C1(O)Oc2cc(OC)cc(OC)c2C(=O)C1c1ccccc1 (stereo not drawn) [2-ethoxycarbonyl-2-hydroxy-5,7-dimethoxyisoflavanone, reference compound]
- ΔΨm [1, 9]: 0.215
- mitoOX (mtOXPHOS transcripts; [9]): 0.273
- nucOX (nuOXPHOS transcripts; [9]): 0.232
- GE-HTS (OXPHOS gene expression; [9]): 0.280
- Viability (C2C12 myotubes; [9]): 0.511
- MTT [2, 9]: −0.260
- cyt c (cytochrome c; [9]): 0.161
- ROS (reactive oxygen species; [9]): 0.774

SMILES: CCOC(=O)[C@H](CCc1ccccc1)N[C@@H](C)C(=O)N1Cc2ccccc2C[C@H]1C(=O)O [quinapril]
- ΔΨm [1, 8]: −0.276
- mitoOX (mtOXPHOS transcripts; [8]): −0.130
- nucOX (nuOXPHOS transcripts; [8]): −0.127
- GE-HTS (OXPHOS gene expression; [8]): −0.132
- Viability (C2C12 myotubes; [8]): 0.034
- MTT [2, 8]: −1.111
- cyt c (cytochrome c; [8]): 0.237
- ROS (reactive oxygen species; [8]): 1.175
